Measurements reported in paper PMC9582434, “Ryanodine receptor-active non-dioxin-like polychlorinated biphenyls cause neurobehavioral deficits in larval zebrafish” (Frontiers in Toxicology, 2022).
pEC50: −log10 of the molar value. Entries after “also recorded” stand apart in the source; their conditions may differ.

Key:
larval zebrafish = experiment: Larval photomotor behavior test (light/dark locomotor test); type: in vivo; conditions: for Behavior score (total change from control): sum of absolute [1 − (AUC value/DMSO)] over all concentrations, epochs and 3, 4, 5 dpf; for distance traveled relative to vehicle control: on average across larval ages
Protocol: At 4 hpf, embryos were treated with 50 µl of 41 mg/ml protease from Streptomyces griseus (P5147, Sigma-Aldrich, St. Louis, MO, United States) in 25 ml of FW for a maximum of 6 min to remove the chorion ([Truong et al., 2011]). At 5 hpf, embryos were placed in individual wells of 96-well plates filled with 100 µl of EM. At 6 hpf, embryos were exposed to a 2× concentration of the selected PCB congeners or controls that were diluted in 100 μl EM to produce a 1× concentration in a total of 200 µl solution. […] After exposure, plates were covered with Parafilm M (Bemis NA, Neenah, WI, United States) to reduce evaporation and placed in an incubator at 28.5°C with 14 h light (∼300 lux)/10 h dark cycles. Final DMSO concentrations were 0.2% (vol/vol) for all exposures. Fish were statically exposed until 5 dpf.
Larval locomotor tests were performed at 3, 4, and 5 dpf. Vehicle and PCB-exposed larvae in 96-well plates were placed in a DanioVision behavior system (Noldus Information Technology, Leesburg, VA, United States) and subjected to a 35 min light/dark locomotor test. System and plate temperature were maintained at 28.5 ± 0.5°C using a temperature control unit from Noldus. The testing paradigm consisted of a 10 min light period (∼1,900 lux) to allow for acclimation (5 min) and to record baseline swimming (5 min). This was followed by a 5 min dark period (∼0 lux) to stimulate increased swimming behavior and a 5 min light period (∼1,900 lux) to stimulate freezing behavior. The last 15 min consisted of a dark period (∼0 lux) to observe increased swimming behavior and acclimation to the dark conditions.
The distance traveled binned per minute by each larva during the 35-min observation test period was recorded via continuous tracing using a DanioVision system camera with an infrared filter to allow recording in both light and dark conditions. Movement was tracked using EthoVisionXT software (Noldus Information Technology) and exported to Excel and Prism 6.0 (GraphPad Software) for analysis and visualization. Dead and/or malformed larvae (as noted by observation under dissecting scope) were excluded from the behavior analysis.
The trapezoidal rule was used to compute the area under the curve (AUC) for each fish per day per lighting condition. The first 5 min of the 35-min observation period was removed to account for initial acclimation. Therefore, data were analyzed for the following time epochs: Light 1 (L1) = 6–10 min, Dark 1 (D1) = 11–15 min, Light 2 (L2) = 16–20 min, and Dark 2 (D2) = 21–35 min. Mixed effects regression models, including zebrafish-specific random effects, were used to assess differences between groups. DMSO groups from each spawn date (≥3 independent spawns) and plate were combined in the analysis. Separate models were fit for each congener. New variables were defined to capture differences in the AUC between Light 1 and Dark 1, Dark 1 and Light 2, and Light 2 and Dark 2, to measure change in distance traveled when transitioning from light to dark or dark to light. Contrasts were specified to compare these transitions and the AUC during each of the lighting conditions between the exposed groups and the DMSO control group. […] Due to some zeroes in the AUC, all values were shifted by 0.1 prior to taking the natural logarithm. Concentration (0.1, 0.3, 1, 3, 10 µM and DMSO), day (3, 4, 5 dpf), and the transition variables were all of interest in the models, including their interactions. Akaike information criterion was used for model selection and Wald tests for comparing groups. All analyses were conducted using SAS version 9.4.
The neurotoxic potential of the congeners tested in this study were ranked based on the three endpoints measured in this study: RYR binding, behavior, and body burden. Congeners were ranked relative to each other for each individual endpoint from 1 (highest) to 6 (lowest), and then the three scores for each congener averaged to obtain an overall relative ranking for each congener. […]

[1] = tested on: RYR paralogs found in zebrafish skeletal muscle; experiment: [3H]ryanodine ligand binding assay, adult zebrafish tail muscle microsomes; conditions: for EC2X: concentration causing two-fold induction in ligand binding vs DMSO control; for Max. response SEM (%): maximum [3H]Ry binding response compared to DMSO control, mean ± SEM; for pEC50: relative EC50, concentration causing half-maximum response, PCB 0.1–50 μM; for RYR activity (in words): zebrafish muscle
Protocol: Sensitization of the zebrafish RYR by ortho-PCBs was measured using [^3H]ryanodine ([^3H]Ry) ligand binding assays as previously described ([Fritsch and Pessah, 2013]). Briefly, crude microsomal protein preparations were created from the tail (post dorsal fin) muscle (primarily white skeletal muscle) of six adult zebrafish (∼1 year old) that was homogenized in a buffer containing 320 mM sucrose, 5 mM HEPES, 1 mM PMSF, 10 mM NaF, 2 mM β-Glycerol, 5 mM Na4P2O7, 0.5 mM Na3VO4 and 2 μg/L leupeptin (pH 7.2). The homogenate was centrifuged at 5,000 × g (4°C) for 15 min. The pellet was re-homogenized in 5 ml homogenization buffer and centrifuged at 5,000 × g. Supernatants were combined for ultracentrifugation at 100,000 g (4°C for 1 h). The resultant pellet was re-suspended in a buffer of 320 mM sucrose and 5 mM HEPES (Sigma-Aldrich, St. Louis, MO, United States) at pH 7.2. Protein concentrations were determined in triplicate using a BCA Assay (Fisher Scientific, Waltham, MA, United States). [^3H]Ry ligand binding assays were conducted with 40 μg/ml of the crude protein homogenate in the presence of DMSO (0.5%) or 0.1–50 μM of individual PCB congeners in 0.5% DMSO. Tests were run using 5 nM [^3H]Ry (Perkin Elmer Waltham, MA, United States), 250 mM KCl, 20 mM HEPES, 15 mM NaCl, and 50 μM CaCl2 (pH 7.1) and incubated for 16 h at 25°C. Non-specific binding was determined with the addition of 10 µM ryanodine (Tocris Bioscience, Bristol, United Kingdom) and 200 μM EGTA (Sigma-Aldrich, St. Louis, MO, United States). Assays were terminated by rapid filtration through Whatman GF/B filter paper (Brandel, Gaithersburg, MD, United States) and washed with ice-cold buffer containing 140 mM KCl, 10 mM HEPES, and 0.1 mM CaCl2, pH 7.4. Bound radioligand was measured by liquid scintillation counting (Beckman Coulter, Indianapolis, IN, United States). PCB-induced [^3H]Ry binding was assessed in two different protein preparations, and each assay was run in triplicate. Individual PCB concentration-response curves were determined using non-linear regression (GraphPad Prism 6.0, GraphPad Software Inc., San Diego, CA, United States).

SMILES	distance moved relative to vehicle control (larval zebrafish; 3 µM, 3 dpf, D2)	distance moved relative to vehicle control (larval zebrafish; 3 µM, 3 dpf, L2)	L1-D1 transition relative to vehicle control (larval zebrafish; 3 µM, 5 dpf)	distance moved relative to vehicle control (larval zebrafish; 3 µM, 5 dpf, L1)	distance moved relative to vehicle control (larval zebrafish; 10 µM, 3 dpf, D1)	distance moved relative to vehicle control (larval zebrafish; 10 µM, 3 dpf, D2)	distance moved relative to vehicle control (larval zebrafish; 10 µM, 3 dpf, L1)	distance moved relative to vehicle control (larval zebrafish; 10 µM, 3 dpf, L2)	L1-D1 transition relative to vehicle control (larval zebrafish; 10 µM, 4 dpf)	distance moved relative to vehicle control (larval zebrafish; 10 µM, 4 dpf, L2)	L1-D1 transition relative to vehicle control (larval zebrafish; 10 µM, 5 dpf)	distance moved relative to vehicle control (larval zebrafish; 10 µM, 5 dpf, L1)	Behavior score (total change from control) (larval zebrafish)	EC2X [1]	Max. response SEM (%) [1]	pEC50 [1]	RYR activity (in words) [1]	L1-D1 transition relative to vehicle control (larval zebrafish; 0.3 µM, 4 dpf)	distance moved relative to vehicle control (larval zebrafish; 0.3 µM, 4 dpf, L1)	distance moved relative to vehicle control (larval zebrafish; 10 µM, 5 dpf, L2)	other results
Clc1ccc(Cl)c(-c2c(Cl)ccc(Cl)c2Cl)c1 [PCB 95, 2,2',3,5',6-pentachlorobiphenyl]	moved more	moved more	significantly less	more	significantly more	significantly more	significantly more	significantly more	decreased	significantly more	decreased	more	81.46	1.5	734.70 ± 49.87%	5.42	high				L1-D1 transition relative to vehicle control (larval zebrafish; 0.1 µM, 4 dpf): moved more; distance moved relative to vehicle control (larval zebrafish; 10 µM, 4 dpf, D1): significantly less; distance moved relative to vehicle control (larval zebrafish; 10 µM, 4 dpf, L1): significantly more; distance moved relative to vehicle control (larval zebrafish; 10 µM, 5 dpf, D1): significantly less; distance moved relative to vehicle control (larval zebrafish; 10 µM, 5 dpf, D2): significantly less; increase in [3H]Ry-binding ([1]; measure of channel activation): ~800%
Clc1cc(Cl)c(-c2cc(Cl)c(Cl)cc2Cl)cc1Cl [PCB 153, 2,2',4,4',5,5'-Hexachlorobiphenyl]					moved more	moved more		moved more		moved more	attenuated	moved more	23.05	3.88	320.40 ± 92.18%	5.36	moderate	attenuating	moved more	more movement	L1-D1 transition relative to vehicle control (larval zebrafish; 1 µM, 3 dpf): larger; distance moved relative to vehicle control (larval zebrafish; 1 µM, 3 dpf, D1): moved more; distance moved relative to vehicle control (larval zebrafish; 1 µM, 3 dpf, D2): moved more; distance moved relative to vehicle control (larval zebrafish; 1 µM, 3 dpf, L2): moved more; L1-D1 transition relative to vehicle control (larval zebrafish; 10 µM, 3 dpf): larger
Clc1cccc(-c2c(Cl)ccc(Cl)c2Cl)c1Cl [PCB 84]		moved more	increased less	moved more	moved more	moved more	Increased	Increased	moved less		increased less	moved more	28.93	6.97	437.50 ± 35.72%	5.05		moved more	significantly less movement		distance moved relative to vehicle control (larval zebrafish; 0.1 µM, 3 dpf, D1): moved less; distance moved relative to vehicle control (larval zebrafish; 0.1 µM, 3 dpf, D2): moved less; distance moved relative to vehicle control (larval zebrafish; 0.1 µM, 3 dpf, L2): moved less; distance moved relative to vehicle control (larval zebrafish; 0.3 µM, 5 dpf, L1): moved more; L1-D1 transition relative to vehicle control (larval zebrafish; 1 µM, 4 dpf): moved more; distance moved relative to vehicle control (larval zebrafish; 1 µM, 4 dpf, L1): significantly less movement; maximal effect compared to the DMSO control ([1]; concentrations above 3 µM): 400%; change in RYR activity at low concentrations ([1]; concentrations below 3 µM, biphasic effect): significant reduction
Clc1ccc(-c2ccc(Cl)c(Cl)c2)c(Cl)c1 [PCB 66]													14.39			< 4.30	negligible; also recorded: limited				distance traveled relative to vehicle control (larval zebrafish; 0.11 µM, L1): significantly decreased; distance traveled relative to vehicle control (larval zebrafish; 1 µM, L1): significantly decreased; concentration failing to cause a 2-fold (EC2X) increase in channel activity [1]: above 10 µM
Clc1ccc(-c2ccc(Cl)cc2Cl)cc1 [PCB 28]	significantly less					significantly less							10.83		170.60 ± 13.28%	6.17	limited		traveling less	moved less	increase of L1-D1 transition relative to vehicle controls (larval zebrafish; 0.1 µM, 4 dpf): 0.9 mm; distance moved relative to vehicle control (larval zebrafish; 0.1 µM, 4 dpf, D1): significantly more; increase of L1-D1 transition relative to vehicle controls (larval zebrafish; 0.3 µM, 4 dpf): 1.3 mm; distance moved relative to vehicle control (larval zebrafish; 0.3 µM, 4 dpf, D1): significantly more; increase of L1-D1 transition relative to vehicle controls (larval zebrafish; 1 µM, 4 dpf): 0.87 mm; distance moved relative to vehicle control (larval zebrafish; 1 µM, 4 dpf, D1): significantly more; increase of L1-D1 transition relative to vehicle controls (larval zebrafish; 3 µM, 4 dpf): 0.9 mm; distance moved relative to vehicle control (larval zebrafish; 3 µM, 4 dpf, D1): significantly more; increase of L1-D1 transition relative to vehicle controls (larval zebrafish; 10 µM, 4 dpf): 0.8 mm; concentration failing to cause a 2-fold (EC2X) increase in channel activity [1]: above 10 µM
